Patent US10806142B2, “2-amino-5-ketoxime-pyrimidine derivatives and their use for controlling undesired plant growth” (Bayer CropScience Aktiengesellschaft, priority 2015, dated 2020)

Key:
Abutilon theophrasti = assay: Post-emergence herbicidal effect; type: in vivo; settings: visual score after about 3 weeks
Procedure: (§1) [table] 2. Post-Emergence Herbicidal Effect and Crop Plant Compatibility Seeds of monocotyledonous and dicotyledonous weed and crop plants are laid out in sandy loam in wood-fiber pots, covered with soil and cultivated in a greenhouse under good growth conditions. 2 to 3 weeks after sowing, the test plants are treated at the one-leaf stage. The compounds of the invention, formulated in the form of wettable powders (WP) or as emulsion concentrates (EC), are then sprayed onto the green parts of the plants as aqueous suspension or emulsion at a water application rate equating to 600 to 800 L/ha with addition of 0.2% wetting agent. After the trial plants have been left to stand in a greenhouse under optimal growth conditions for about 3 weeks, the efficacy of the formulations is scored visually in comparison to untreated controls (herbicidal action in percent (%): 100% efficacy=the plants have died, 0% efficacy=like control plants).

Stellaria media [1] = assay: Post-emergence herbicidal effect; type: in vivo; settings: visual score after about 3 weeks
Procedure: as §1

Polygpnum convolvulus [2] = assay: Post-emergence herbicidal effect; type: in vivo
Procedure: as §1

Viola tricolor [3] = assay: Post-emergence herbicidal effect; type: in vivo
Procedure: as §1

Matricaria inodora [4] = assay: Pre-emergence herbicidal effect; type: in vivo
From the text: (§2) 1. Pre-Emergence Herbicidal Effect and Crop Plant Compatibility Seeds of monocotyledonous and dicotyledonous weed plants and crop plants are laid out in wood-fiber pots in sandy loam and covered with soil. The compounds of the invention, formulated in the form of wettable powders (WP) or as emulsion concentrates (EC), are then applied to the surface of the covering soil as aqueous suspension or emulsion at a water application rate equating to 600 to 800 L/ha with addition of 0.2% wetting agent. After the treatment, the pots are placed in a greenhouse and kept under good growth conditions for the trial plants. The damage to the trial plants is scored visually after a trial duration of 3 weeks by comparison with untreated controls (herbicidal activity in percent (%): 100% efficacy=the plants have died, 0% efficacy=like control plants). [table]

Stellaria media [5] = assay: Pre-emergence herbicidal effect; type: in vivo
From the text: as §2

Veronica persica = assay: Pre-emergence herbicidal effect; type: in vivo
From the text: as §2

Echinochloa crus-galli = assay: Pre-emergence herbicidal effect; type: in vivo; settings: dosage 320 g a.i./ha
From the text: as §2

Setaria viridis [6] = assay: Pre-emergence herbicidal effect; type: in vivo; settings: dosage 320 g a.i./ha
From the text: as §2

Viola tricolor [7] = assay: Pre-emergence herbicidal effect; type: in vivo
From the text: as §2

Amaranthus retroflexus = assay: Pre-emergence herbicidal effect; type: in vivo
From the text: as §2

[8] = logp (HCOOH), physicochemical characterization; settings: HCOOH (formic acid)
Polygpnum convolvulus [9] = assay: Pre-emergence herbicidal effect; type: in vivo
From the text: as §2

Setaria viridis [10] = assay: Post-emergence herbicidal effect; type: in vivo
Procedure: as §1

Cyperus esculentus = assay: Pre-emergence herbicidal effect; type: in vivo; settings: dosage 320 g a.i./ha
From the text: as §2

Ipomoea purpurea = assay: Post-emergence herbicidal effect; type: in vivo
Procedure: as §1

Matricaria inodora [11] = assay: Post-emergence herbicidal effect; type: in vivo; settings: dosage 320 g a.i./ha, visual score after about 3 weeks
Procedure: as §1

[12] = dosage 80 g a.i./ha, visual score after about 3 weeks
[13] = dosage 320 g a.i./ha, visual score after about 3 weeks
[14] = dosage cell empty, first line of the compound
[15] = dosage cell empty, second line of the compound

| Structure (SMILES) | Herbicidal activity against ABUTH (Abutilon theophrasti; dosage 80 g a.i./ha) [%] | Herbicidal activity against ABUTH (Abutilon theophrasti; dosage 320 g a.i./ha) [%] | Herbicidal activity against STEME (Stellaria media [1]; dosage 80 g a.i./ha) [%] | Herbicidal activity against STEME (Stellaria media [1]; dosage 320 g a.i./ha) [%] | Herbicidal activity against POLCO (Polygpnum convolvulus [2]; [12]) [%] | Herbicidal activity against POLCO (Polygpnum convolvulus [2]; [13]) [%] | Herbicidal activity against VIOTR (Viola tricolor [3]; [12]) [%] | Herbicidal activity against VIOTR (Viola tricolor [3]; [13]) [%] | Herbicidal activity against MATIN (Matricaria inodora [4]; dosage 320 g a.i./ha) [%] | Herbicidal activity against STEME (Stellaria media [5]; dosage 80 g a.i./ha) [%] | Herbicidal activity against STEME (Stellaria media [5]; dosage 320 g a.i./ha) [%] | Herbicidal activity against VERPE (Veronica persica; dosage 80 g a.i./ha) [%] | Herbicidal activity against VERPE (Veronica persica; dosage 320 g a.i./ha) [%] | Herbicidal activity against ECHCG (Echinochloa crus-galli) [%] | Herbicidal activity against SETVI (Setaria viridis [6]) [%] | Herbicidal activity against VIOTR (Viola tricolor [7]; dosage 80 g a.i./ha) [%] | Herbicidal activity against VIOTR (Viola tricolor [7]; dosage 320 g a.i./ha) [%] | Herbicidal activity against AMARE (Amaranthus retroflexus; dosage 320 g a.i./ha) [%] | chromatographic logP [8] | Herbicidal activity against POLCO (Polygpnum convolvulus [9]; dosage 320 g a.i./ha) [%] | other results |
| --- | --- | --- | --- | --- | --- | --- | --- | --- | --- | --- | --- | --- | --- | --- | --- | --- | --- | --- | --- | --- | --- |
| CCCC/C(=N\O)c1cnc(N[C@H]2c3cc(C)ccc3C[C@@H]2C)nc1 [Compound 1.85a, N-[(1R,2S)-2,6-Dimethyl-2,3-dihydro-1H-inden-1-yl]-5-[(1E)-N-hydroxypentanimidoyl]pyrimidine-2-amine] | 80 | 100 | 80 | 90 | 80 | 80 | 80 | 90 | 100 | 100 | 100 | 100 | 100 | 100 | 100 | 100 | 100 | 80 | 3.86 | – | – |
| CCCC/C(=N/O)c1cnc(N[C@H]2c3cc(C)ccc3C[C@@H]2C)nc1 [Compound 1.85b, N-[(1R,2S)-2,6-dimethyl-2,3-dihydro-1H-inden-1-yl]-5-[(1Z)-N-hydroxypentanimidoyl]pyrimidine-2-amine] | – | – | – | – | – | – | – | – | 80 | 100 | 100 | 100 | 100 | – | – | 100 | 100 | 80 | 4.1 | 90 | – |
| C/C(=N\Oc1ccc(F)cc1)c1cnc(N[C@H]2c3cc(C)ccc3C[C@@H]2C)nc1 [Compound 1.101a, N-[(1R,2S)-2,6-Dimethyl-2,3-dihydro-1H-inden-1-yl]-5-[(1E)-N-(4-fluorophenoxy)ethanimidoyl]pyrimidine-2-amine] | 90 | 100 | 90 | 90 | 100 | 100 | 90 | 90 | 100 | 100 | 100 | 100 | 100 | 100 | – | – | 100 | 100 | 5.34 | – | Herbicidal activity against SETVI (Setaria viridis [10]; [13]): 80%; Herbicidal activity against MATIN (Matricaria inodora [4]; dosage 80 g a.i./ha): 80%; Herbicidal activity against CYPES (Cyperus esculentus): 90%; Herbicidal activity against POLCO (Polygpnum convolvulus [9]; dosage 80 g a.i./ha): 90%; Herbicidal activity against AMARE (Amaranthus retroflexus; dosage 80 g a.i./ha): 90% |
| CCO/N=C(\C)c1cnc(N[C@H]2c3cc(C)ccc3C[C@@H]2C)nc1 [Compound 1.103a, N-[(1R,2S)-2,6-Dimethyl-2,3-dihydro-1H-inden-1-yl]-5-[(1E)-N-ethoxyethanimidoyl]pyrimidine-2-amine] | – | 90 | 90 | 90 | 90 | 100 | 90 | 90 | 100 | 100 | 100 | – | – | 100 | 100 | 100 | 100 | 100 | – | 100 | Herbicidal activity against PHBPU (Ipomoea purpurea; [12]): 80%; Herbicidal activity against PHBPU (Ipomoea purpurea; [13]): 90%; Herbicidal activity against MATIN (Matricaria inodora [11]): 80%; Herbicidal activity against MATIN (Matricaria inodora [4]; dosage 80 g a.i./ha): 90%; Herbicidal activity against AMARE (Amaranthus retroflexus; dosage 80 g a.i./ha): 100% |
| CC/C(=N/OCc1ccc(Cl)cc1)c1cnc(N[C@H]2c3cc(C)ccc3C[C@@H]2C)nc1CC [Compound 1.115b, 5-{(1Z)-N-[(4-Chlorobenzyl)oxy]propanimidoyl}-N-[(1R,2S)-2,6-dimethyl-2,3-dihydro-1H-inden-1-yl]-4-ethylpyrimidine-2-amine] | – | – | – | – | – | – | – | – | 90 | – | 100 | 100 | 100 | – | – | 90 | 100 | – | – | – | Herbicidal activity against PHBPU (Ipomoea purpurea; [14]): 90%; Herbicidal activity against SETVI (Setaria viridis [10]; [14]): 100%; Herbicidal activity against SETVI (Setaria viridis [10]; [15]): 80%; Herbicidal activity against POLCO (Polygpnum convolvulus [2]; [14]): 80%; Herbicidal activity against VIOTR (Viola tricolor [3]; [14]): 90%; Herbicidal activity against VIOTR (Viola tricolor [3]; [15]): 80% |
